Data as given in patent US12630633B2, “Antibody molecules to PD-1 and uses thereof” (Novartis AG, priority 2015, dated 2026).
Like-named read-outs stand apart in the source and are kept apart here.

What was measured:
[1] = test system: EGFR mutant NSCLC; experiment: Compound A40 in EGFR mutant NSCLC patients; type: in vivo, human
[2] = test system: CT26; conditions: cited from earlier work
[3] = test system: KRAS-mutant CT26 colorectal tumor; conditions: monotherapy, CT26 model; cited from earlier work
[4] = test system: metastatic breast cancer; conditions: phase III, cited from earlier work
[5] = test system: MC38; experiment: MC38 murine syngeneic tumor model, Compound A21 with anti-PD-1; type: in vivo, C57B1/6 mice; conditions: Compound A21 100 mg/kg orally once weekly (split 50 mg/kg b.i.d.), anti-PD-1 10 mg/kg IV once weekly
Experimental: C57B1/6 mice were implanted with 1×10^6 MC38 cells/mouse. Vehicle and Compound A21 (50 mg/kg orally twice daily QW) were given for four doses, starting on day 4 post-tumor implant. Isotype and anti-mouse PD-1 were given 10 mg/kg IV QW.

[6] = test system: T lymphocytes; experiment: T lymphocyte proliferation and cytokine production in vitro; type: cell-based
[7] = test system: T lymphocytes; experiment: Compound A21 effects on T lymphocytes in vitro; type: cell-based
[8] = test system: xenografted tumors; conditions: cited from earlier work
[9] = test system: PD-1-positive CD4+ and CD8+ lymphocytes; conditions: 5 mg per week, elderly subjects; cited from earlier work
[10] = test system: S6 kinase (S6K) phosphorylation; conditions: predicted by modeling, cited from earlier work
[11] = test system: metastatic TNBC; conditions: Keynote-012; cited from earlier work
[12] = test system: AML; conditions: cited from earlier work
[13] = test system: MC38; experiment: MC38 syngeneic colorectal cancer model, Compound A15 with anti-PD-1; type: in vivo; conditions: preclinical data
[14] = continuous daily dosing, transaminases, monkeys; type: in vivo
[15] = test system: BAF3-PDGFRβ; experiment: kinase transfected BaF3 proliferation assay, BAF3-PDGFRβ; conditions: Mus musculus, BaF3, read-out: Cellular EC50 BAF3-PDGFRβ
[16] = test system: all other BaF3 cell lines; experiment: kinase transfected BaF3 proliferation assays, all other BaF3 cell lines; conditions: Mus musculus, BaF3, read-out: Cellular EC50 all other BaF3 cell lines
[17] = test system: MNFS-60; experiment: anti-proliferative effect on M-CSF dependent cell line MNFS-60
[18] = test system: glioblastoma; conditions: cited from earlier work
[19] = test system: human T cell proliferation; conditions: cited from earlier work
[20] = continuous daily dosing, transaminases, rats; type: in vivo
[21] = test system: MC38; experiment: MC38 murine syngeneic tumor model, panobinostat with anti-PD-1; type: in vivo
[22] = test system: PD-L1 gene; conditions: cited from earlier work
[23] = test system: class I, IIa, IIIb, and IV isoforms (HDAC); conditions: majority of class I; cited from earlier work
[24] = test system: S6 kinase (S6K) phosphorylation; conditions: predicted, cited from earlier work
[25] = test system: PD-1-positive CD4+ and CD8+ lymphocytes; conditions: 5 mg per week, cited from earlier work
[26] = 0.5 mg daily dosing regimen, over the dosing interval

## Cc1cc(C(=O)Nc2nc3cccc(Cl)c3n2[C@@H]2CCCCN(C(=O)/C=C/CN(C)C)C2)ccn1 [Compound A40]
[1]
  efficacy: has shown efficacy

## CC(=O)Nc1cccc(-n2c(=O)n(C3CC3)c(=O)c3c(Nc4ccc(I)cc4F)n(C)c(=O)c(C)c32)c1 [trametinib, N-(3-{3-cyclopropyl-5-[(2-fluoro-4-iodophenyl)amino]-6,8-dimethyl-2,4,7-trioxo-3,4,6,7-tetrahydropyrido[4,3-d]pyrimidin-1(2H)-yl}phenyl)acetamide]
[2]; CT26, treatment for seven days
  CD4+ T cells in tumor tissue: significant increases of CD4+ T cells
[2]; CT26
  tumor infiltrating lymphocytes (TILs): increases the numbers of tumor infiltrating lymphocytes (TILs)
[3]
  CD4+ tumor infiltrating lymphocytes (TILs): increased
  prevalence of CD8+ TILs: did not negatively affect

## CC(=O)O[C@H]1C(=O)[C@@]2(C)[C@H]([C@H](OC(=O)c3ccccc3)[C@]3(O)C[C@H](OC(=O)[C@H](O)[C@@H](NC(=O)c4ccccc4)c4ccccc4)C(C)=C1C3(C)C)[C@]1(OC(C)=O)CO[C@@H]1C[C@@H]2O [traditional paclitaxel, (2α,4α,5β,7β,10β,13α)-4,10-Bis(acetyloxy)-13-{[(2R,3S)-3-(benzoylamino)-2-hydroxy-3-phenylpropanoyl]oxy}-1,7-dihydroxy-9-oxo-5,20-epoxytax-11-en-2-yl benzoate]
[4]; first and second line or beyond
  ORR: 19%
[4]
  TTP: 16.9 weeks

## CN[C@@H](C)C(=O)N[C@H](C(=O)N1CCC[C@H]1c1nc(C(=O)c2ccc(F)cc2)cs1)C1CCCCC1 [Compound A21]
[5]
  complete responses (CRs): neither single agent treatment yielded any CRs
[6]
  IFNgamma: induced IFNgamma
  production of IL-10: suppressed production of IL-10
  proliferation of T lymphocytes: stimulated proliferation of T lymphocytes
[7]
  IFNgamma: induced
  production of IL-10: suppressed
  proliferation of T lymphocytes: stimulated
1800 mg in combination with paclitaxel
  tolerability: poorly tolerated
With paclitaxel, clinical data
  rate of pathological complete response of TNBC: increased the rate of pathological complete response

## O=C(/C=C/c1ccc2ccc(C(F)(F)F)cc2n1)c1ccncc1 [PFK-158, (E)-1-(pyridin-4-yl)-3-(7-(trifluoromethyl)quinolin-2-yl)-prop-2-en-1-one]
[8]
  antitumor activity: exhibit antitumor activity
[8]; xenografted tumors
  18FDG uptake: reduce

## CO[C@H]1C[C@@H]2CC[C@@H](C)[C@@](O)(O2)C(=O)C(=O)N2CCCC[C@H]2C(=O)O[C@H]([C@H](C)C[C@@H]2CC[C@@H](OCCO)[C@H](OC)C2)CC(=O)[C@H](C)/C=C(\C)[C@@H](O)[C@@H](OC)C(=O)[C@H](C)C[C@H](C)/C=C/C=C/C=C/1C [everolimus]
[9]
  immune effect: immunostimulatory
[10]; [26]
  inhibition of S6K phosphorylation: about 38%
[10]; 5 mg weekly dosing regimen
  inhibition of S6K phosphorylation: more than 50%
[10]; 20 mg weekly dosing regimen
  inhibition of mTOR-mediated S6K phosphorylation: almost completely

## pembrolizumab
[11]
  responses, patients: five of 27

## Nc1ncn([C@H]2C[C@H](O)[C@@H](CO)O2)c(=O)n1 [decitabine, 5-aza-2′-deoxycytidine]
[12]; in vivo
  complete remission rate (CR+CRp): 17.8%
[12]; intent-to-treat population
  median Overall Survival (OS): 7.7 months

## CNC(=O)c1cc(Oc2ccc3nc(N[C@@H]4CCCC[C@H]4O)sc3c2)ccn1 [Compound A15]
[13]
  once-a-week (Q1W) versus daily dose, TAMs depletion and anti-tumor activity: performs at least as well as the daily dose
[14]
  transaminases: transaminases elevation
[15]
  EC50: ≥ 2000 nM
[16]
  EC50: > 10000 nM
[17]; read-out: EC50 anti-proliferative effect, MNFS-60, M-CSF dependent proliferation
  EC50: < 71 nM
[17]; read-out: EC50 anti-proliferative effect, MNFS-60; M-CSF dependent proliferation
  EC50: 71 nM
[18]; 200 mg/kg daily, genetic mouse model of glioblastoma
  established tumors and survival: induce regression of established tumors and increase survival
[18]; 200 mg/kg daily, proneural glioblastoma-derived xenografts
  xenograft growth: slow the growth
[18]; animal models of glioma
  M2-type macrophages: reduction and re-programming of M2-type macrophages
[19]; monocytes co-cultured with neuroblastoma cell lines
  suppressive function of tumor-educated monocytes on CD8+ and CD4+ T cells: inhibit the suppressive function
[19]; neuroblastoma (Mao et al. 2016)
  potential of myeloid cells to stimulate human T cell proliferation: recovered the potential of myeloid cells to stimulate human T cell proliferation
[20]
  transaminases: transaminases elevation

## Cc1[nH]c2ccccc2c1CCNCc1ccc(/C=C/C(=O)NO)cc1 [Compound A19, Panobinostat]
[21]; panobinostat 12 mg/kg every other day, anti-PD1 10 mg/kg IV once weekly
  animals achieving CRs: two of ten
[21]; recovery after dosing of panobinostat was completed
  body weight: Some reduction in body weight
[22]; melanoma cell lines, cultured melanoma biopsy material, tumor-bearing mice
  expression of the PD-L1 gene: enhanced expression of the PD-L1 gene
[22]; mice
  responses to treatment with a PD-1 inhibitor: modestly improved responses
[23]
  inhibition of HDAC activity: highly effective at inhibiting the HDAC activity of the majority of class I, IIa, IIIb, and IV isoforms at low nanomolar concentrations

## COC1CC2CCC(C)C(O)(O2)C(=O)C(=O)N2CCCCC2C(=O)OC(C(C)CC2CCC(OCCO)C(OC)C2)CC(=O)C(C)/C=C(/C)C(O)C(OC)C(=O)C(C)CC(C)/C=C/C=C/C=C\1C (centres unmarked) [Compound A36, Everolimus]
[24]; [26]
  inhibition of S6K phosphorylation: about 38%
[24]; 5 mg weekly dosing regimen
  inhibition of S6K phosphorylation: more than 50%
[24]; 20 mg weekly dosing regimen
  inhibition of mTOR-mediated S6K phosphorylation: almost completely
[25]; compared to placebo
  percentage of PD-1-positive CD4+ and CD8+ lymphocytes: reducing the percentage of PD-1-positive CD4+ and CD8+ lymphocytes
[25]; elderly subjects
  response to an influenza vaccine: enhancing the response to an influenza vaccine
